Literature values in patent US6414126B1, “C-aryl glucoside SGLT2 inhibitors and method” (Bristol-Myers Squibb Company, priority 1999, dated 2002).

Assays:
human SGLT1 = target: T1, human SGLT1 (Homo sapiens, UniProt P13866); conditions: SGLT1 transporter; read-out: Km values for uptake
T1 sequence (P13866 1-664): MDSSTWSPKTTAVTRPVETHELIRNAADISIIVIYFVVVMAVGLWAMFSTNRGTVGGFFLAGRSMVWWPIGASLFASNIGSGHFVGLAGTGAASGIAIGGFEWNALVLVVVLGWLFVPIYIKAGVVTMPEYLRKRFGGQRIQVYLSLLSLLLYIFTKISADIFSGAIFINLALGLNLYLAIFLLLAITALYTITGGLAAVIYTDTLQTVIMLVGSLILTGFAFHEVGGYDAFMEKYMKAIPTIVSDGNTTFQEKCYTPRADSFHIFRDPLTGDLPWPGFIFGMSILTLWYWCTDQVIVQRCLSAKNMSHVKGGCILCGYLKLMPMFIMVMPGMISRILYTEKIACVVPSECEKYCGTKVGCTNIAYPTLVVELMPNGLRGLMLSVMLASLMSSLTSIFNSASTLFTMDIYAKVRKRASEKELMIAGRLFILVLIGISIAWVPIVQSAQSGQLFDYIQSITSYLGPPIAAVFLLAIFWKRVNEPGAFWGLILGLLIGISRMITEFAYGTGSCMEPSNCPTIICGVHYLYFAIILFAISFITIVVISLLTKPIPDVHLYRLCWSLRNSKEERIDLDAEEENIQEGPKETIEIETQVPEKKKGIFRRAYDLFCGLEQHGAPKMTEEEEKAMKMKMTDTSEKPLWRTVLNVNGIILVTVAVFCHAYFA

human SGLT2 = target: T2, human SGLT2 (Homo sapiens, UniProt P31639); conditions: SGLT2 transporter; read-out: Km values for uptake
T2 sequence (P31639 1-672): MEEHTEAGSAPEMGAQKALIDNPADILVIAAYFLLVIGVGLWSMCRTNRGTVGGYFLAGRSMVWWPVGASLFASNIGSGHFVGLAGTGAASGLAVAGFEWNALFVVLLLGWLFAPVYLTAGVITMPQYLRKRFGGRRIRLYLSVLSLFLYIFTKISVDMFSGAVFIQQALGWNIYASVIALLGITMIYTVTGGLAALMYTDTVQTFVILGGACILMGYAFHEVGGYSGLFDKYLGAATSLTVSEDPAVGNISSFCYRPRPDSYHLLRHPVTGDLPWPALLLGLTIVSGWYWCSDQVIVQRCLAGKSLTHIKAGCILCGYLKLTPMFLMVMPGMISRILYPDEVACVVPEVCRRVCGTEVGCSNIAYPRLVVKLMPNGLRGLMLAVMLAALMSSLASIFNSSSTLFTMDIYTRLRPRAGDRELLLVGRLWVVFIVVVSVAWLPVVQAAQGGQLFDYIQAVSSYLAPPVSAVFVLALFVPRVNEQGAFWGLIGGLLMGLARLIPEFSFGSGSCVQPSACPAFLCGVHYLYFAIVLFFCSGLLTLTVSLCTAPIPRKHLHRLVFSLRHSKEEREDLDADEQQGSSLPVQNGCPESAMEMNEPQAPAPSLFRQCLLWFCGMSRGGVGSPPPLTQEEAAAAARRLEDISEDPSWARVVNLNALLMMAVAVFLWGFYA

CO[C@H]1O[C@H](CO)[C@@H](O)[C@H](O)[C@H]1O [AMG, α-methyl-D-glucopyranoside]
Km (human SGLT1): 400 µM | Km (human SGLT2): 1600 µM
